Test results: publication PMC6261661 (ACS chemical neuroscience, 2018)
Square brackets hold non-standard residues; d marks the D form. Peptide text beside a SMILES is read from it. * marks the point of attachment. dBip = N[C@H](Cc1ccc(-c2ccccc2)cc1)C(=O)O; dPhe(4-I) = N[C@H](Cc1ccc(I)cc1)C(=O)O; 1Nal = N[C@@H](Cc1cccc2ccccc12)C(=O)O; 2Nal = N[C@@H](Cc1ccc2ccccc2c1)C(=O)O; d1Nal = N[C@H](Cc1cccc2ccccc12)C(=O)O; d2Nal = N[C@H](Cc1ccc2ccccc2c1)C(=O)O; Bta = N[C@@H](Cc1csc2ccccc12)C(=O)O; 3Pal = N[C@@H](Cc1cccnc1)C(=O)O; Tic = O=C(O)[C@@H]1Cc2ccccc2CN1; 2Thi = N[C@@H](Cc1cccs1)C(=O)O; Octanoyl = CCCCCCCC(=O)*

Legend:
Type in all cases: cell-based
mMC4R = mMC4R (Mus musculus, UniProt P56450); assay: CRE/β-galactosidase reporter gene bioassay, agonist activity at mMC4R; conditions: for mMC4R Fold Diff.: fold difference in EC50 vs peptide 1, negative prefix = more potent than 1; for mMC4R fold less potent than compound 1: less potent than 1
mMC1R = mMC1R (Mus musculus, UniProt Q01727); assay: CRE/β-galactosidase reporter gene bioassay, agonist activity at mMC1R; conditions: for EC50: mMC1R EC50, agonist, HEK-293 cells stably expressing receptor, ±SEM; for mMC1R Fold Diff: fold difference in EC50 vs peptide 1, negative prefix = more potent than 1; for mMC1R fold decrease in potency compared to compound 1: less potent than 1
mMC5R = mMC5R (Mus musculus, UniProt P41149); assay: CRE/β-galactosidase reporter gene bioassay, agonist activity at mMC5R; conditions: for mMC5R pharmacology in words: comparisons are to reference peptide 1; for mMC5R Fold Diff.: fold difference in EC50 vs peptide 1, negative prefix = more potent than 1; for mMC5R fold less potent than peptide 1: less potent than 1
mMC3R = mMC3R (Mus musculus, UniProt P33033); assay: cell-based; conditions: for mMC3R Fold Diff: fold difference in EC50 vs peptide 1, negative prefix = more potent than 1
Chain of mMC3R (P33033 whole entry): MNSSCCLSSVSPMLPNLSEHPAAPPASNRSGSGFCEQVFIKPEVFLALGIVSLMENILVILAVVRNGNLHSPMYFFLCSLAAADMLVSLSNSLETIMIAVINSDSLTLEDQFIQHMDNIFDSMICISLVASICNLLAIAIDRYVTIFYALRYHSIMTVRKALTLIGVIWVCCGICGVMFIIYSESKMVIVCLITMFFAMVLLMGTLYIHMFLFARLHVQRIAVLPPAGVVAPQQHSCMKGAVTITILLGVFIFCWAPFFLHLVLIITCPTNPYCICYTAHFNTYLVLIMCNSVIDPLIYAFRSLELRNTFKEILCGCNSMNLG

Chain of mMC4R (P56450 whole entry): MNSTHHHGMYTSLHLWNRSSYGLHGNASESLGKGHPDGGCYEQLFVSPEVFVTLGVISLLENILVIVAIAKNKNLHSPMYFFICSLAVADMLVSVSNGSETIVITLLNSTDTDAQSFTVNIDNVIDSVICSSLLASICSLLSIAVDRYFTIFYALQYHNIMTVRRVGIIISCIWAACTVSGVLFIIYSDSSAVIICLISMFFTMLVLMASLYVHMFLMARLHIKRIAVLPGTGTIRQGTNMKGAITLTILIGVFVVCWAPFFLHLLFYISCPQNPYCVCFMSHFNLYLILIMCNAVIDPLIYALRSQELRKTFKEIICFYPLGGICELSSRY
Chain of mMC5R (P41149 whole entry): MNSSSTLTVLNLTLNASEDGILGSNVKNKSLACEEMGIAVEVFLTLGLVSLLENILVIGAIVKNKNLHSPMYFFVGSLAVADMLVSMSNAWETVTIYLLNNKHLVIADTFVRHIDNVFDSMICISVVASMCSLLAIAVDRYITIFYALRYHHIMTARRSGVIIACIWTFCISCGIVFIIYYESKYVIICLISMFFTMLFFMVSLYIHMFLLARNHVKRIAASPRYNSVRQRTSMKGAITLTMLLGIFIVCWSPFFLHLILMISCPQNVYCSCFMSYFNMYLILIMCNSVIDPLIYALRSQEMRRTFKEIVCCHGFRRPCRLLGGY
Chain of mMC1R (Q01727 whole entry): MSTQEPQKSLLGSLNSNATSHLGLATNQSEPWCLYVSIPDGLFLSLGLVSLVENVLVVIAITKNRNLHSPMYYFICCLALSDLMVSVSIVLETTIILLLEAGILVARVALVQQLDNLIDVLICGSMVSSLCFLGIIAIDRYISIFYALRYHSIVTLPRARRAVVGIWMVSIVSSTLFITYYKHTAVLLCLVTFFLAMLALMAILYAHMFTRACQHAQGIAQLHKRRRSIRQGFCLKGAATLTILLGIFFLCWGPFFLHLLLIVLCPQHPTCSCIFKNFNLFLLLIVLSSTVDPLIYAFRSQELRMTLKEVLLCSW

| Compound | EC50 (mMC4R) [nM] | mMC4R Fold Diff. (mMC4R) | EC50 (mMC1R) [nM] | EC50 (mMC5R) [nM] | mMC5R pharmacology in words (mMC5R) | mMC3R relative percentage of stimulation at 100 μM (mMC3R; ligand at 100 μM, compared to maximal response generated by α-MSH) [% at 100 μM] | mMC1R Fold Diff (mMC1R) | mMC5R Fold Diff. (mMC5R) | mMC3R relative percentage of stimulation at 100 μM (mMC3R; 100000.0) | mMC1R pharmacology in words (mMC1R; comparisons are to reference peptide 1) | EC50 (mMC3R) [µM] | mMC5R fold less potent than peptide 1 (mMC5R) | mMC3R Fold Diff (mMC3R) | mMC4R fold less potent than compound 1 (mMC4R) [fold] | mMC1R fold decrease in potency compared to compound 1 (mMC1R) [fold] | fold more potent at the mMC5R compared to the mMC1R (mMC5R; selectivity, agonist EC50) [fold] | fold more potent at the mMC5R compared to the mMC3R (mMC5R; selectivity, agonist EC50) [fold] | fold more potent at the mMC5R compared to the mMC4R (mMC5R; selectivity, agonist EC50) [fold] | mMC1R fold difference in EC50, more potent than reference peptide 1 (mMC1R; more potent agonist than 1) [fold] | mMC3R fold difference, more potent agonist than Ac-His-DPhe-Arg-Trp-NH2 (mMC3R; more potent than 1) [fold] |
| --- | --- | --- | --- | --- | --- | --- | --- | --- | --- | --- | --- | --- | --- | --- | --- | --- | --- | --- | --- | --- |
| CC(=O)N[C@@H](Cc1c[nH]cn1)C(=O)N[C@H](Cc1ccc(I)cc1)C(=O)N[C@@H](CCCNC(=N)N)C(=O)N[C@@H](Cc1ccccc1)C(N)=O [Peptide 32, Ac-His-(pI)DPhe-Arg-Phe-NH2] (Ac-H[dPhe(4-I)]RF-NH2) | 80 ± 7 | 6 | 91 ± 13 | 18.4 ± 5.7 | equipotent agonists | 60 | – | – | – | – | – | – | – | – | – | – | – | – | – | – |
| CC(=O)N[C@@H](Cc1c[nH]c2ccccc12)C(=O)N[C@H](Cc1ccccc1)C(=O)N[C@@H](CCCNC(=N)N)C(=O)N[C@@H](Cc1cccc2ccccc12)C(N)=O [Peptide 24, Ac-Trp-DPhe-Arg-Nal(1’)-NH2] (Ac-W[dF]R[1Nal]-NH2) | 1100 ± 300 | 77 | 3300 ± 1200 | 3000 ± 1200 | – | – | 23 | 566 | 50% | – | – | – | – | – | – | – | – | – | – | – |
| CCCCCCCC(=O)N[C@@H](Cc1c[nH]c2ccccc12)C(=O)N[C@H](Cc1ccccc1)C(=O)N[C@@H](CCCNC(=N)N)C(=O)N[C@@H](Cc1c[nH]c2ccccc12)C(N)=O [Peptide 10, Octanoyl-Trp-DPhe-Arg-Trp-NH2] (Octanoyl-W[dF]RW-NH2) | 180 ± 40 | 13 | 210 ± 30 | 58 ± 7 | decreased potencies | – | – | 11 | 50%−65% | equipotent | – | – | – | – | – | – | – | – | – | – |
| CC(=O)N[C@@H](Cc1ccccc1)C(=O)N[C@H](Cc1cccc2ccccc12)C(=O)N[C@@H](CCCNC(=N)N)C(=O)N[C@@H](Cc1c[nH]c2ccccc12)C(N)=O [Peptide 21, Ac-Phe-DNal(1’)-Arg-Trp-NH2] (Ac-F[d1Nal]RW-NH2) | 2800 ± 1000 | 205 | 3900 ± 1900 | 3800 ± 2100 | – | – | 28 | 720 | – | – | > 100 | – | – | – | – | – | – | – | – | – |
| CCCCCCCC(=O)N[C@@H](Cc1c[nH]cn1)C(=O)N[C@H](Cc1ccccc1)C(=O)N[C@@H](CCCNC(=N)N)C(=O)N[C@@H](Cc1ccccc1)C(N)=O [Peptide 5, Octanoyl-His-DPhe-Arg-Phe-NH2] (Octanoyl-H[dF]RF-NH2) | 110 ± 10 | 8 | 19.4 ± 2.1 | 26 ± 3 | decreased potencies | – | −7 | 5 | – | – | 0.29 ± 0.06 | – | – | – | – | – | – | – | – | – |
| CCCCCCCC(=O)N[C@@H](Cc1c[nH]cn1)C(=O)N[C@H](Cc1ccccc1)C(=O)N[C@@H](CCCNC(=N)N)C(=O)N1Cc2ccccc2C[C@H]1C(N)=O [Peptide 4, Octanoyl-His-DPhe-Arg-Tic-NH2] (Octanoyl-H[dF]R[Tic]-NH2) | 1700 ± 300 | 120 | 7.4 ± 2.1 | 270 ± 20 | decreased potencies | – | −20 | 50 | – | – | 6.9 ± 0.4 | 50 fold | 12 | – | – | – | – | – | – | – |
| CC(=O)N[C@@H](Cc1c[nH]c2ccccc12)C(=O)N[C@H](Cc1ccccc1)C(=O)N[C@@H](CCCNC(=N)N)C(=O)N[C@@H](Cc1csc2ccccc12)C(N)=O [Peptide 25, Ac-Trp-DPhe-Arg-3Bal-NH2] (Ac-W[dF]R[Bta]-NH2) | 7900 ± 2400 | 576 | 8000 ± 3000 | 4800 ± 1700 | – | – | 57 | 905 | – | – | > 100 | approximately 1000 fold | – | 580 | – | – | – | – | – | – |
| CC(=O)N[C@@H](Cc1ccccc1)C(=O)N[C@H](Cc1ccc(-c2ccccc2)cc1)C(=O)N[C@@H](CCCNC(=N)N)C(=O)N[C@@H](Cc1c[nH]c2ccccc12)C(N)=O [Peptide 20, Ac-Phe-DBip-Arg-Trp-NH2] (Ac-F[dBip]RW-NH2) | 5400 ± 1600 | 395 | 10000 ± 4900 | 500 ± 70 | – | – | 71 | 94 | – | – | > 100 | – | – | – | – | – | – | – | – | – |
| CC(=O)N[C@@H](Cc1cccs1)C(=O)N[C@H](Cc1ccccc1)C(=O)N[C@@H](CCCNC(=N)N)C(=O)N[C@@H](Cc1csc2ccccc12)C(N)=O [Peptide 27, Ac-2Thi-DPhe-Arg-3Bal-NH2] (Ac-[2Thi][dF]R[Bta]-NH2) | 1300 ± 300 | 91 | 6400 ± 1600 | 970 ± 290 | – | – | 45 | 183 | – | – | > 100 | – | – | – | – | – | – | – | – | – |
| CC(=O)N[C@@H](Cc1cccnc1)C(=O)N[C@H](Cc1ccccc1)C(=O)N[C@@H](CCCNC(=N)N)C(=O)N[C@@H](Cc1ccc2ccccc2c1)C(N)=O [Peptide 23, Ac-3PAL-DPhe-Arg-Nal(2’)-NH2] (Ac-[3Pal][dF]R[2Nal]-NH2) | 110 ± 20 | 8 | 1900 ± 600 | 240 ± 50 | – | – | 14 | 45 | – | – | > 100 | – | – | 8 | 14 | – | – | – | – | – |
| CC(=O)N[C@@H](Cc1c[nH]c2ccccc12)C(=O)N[C@H](Cc1ccccc1)C(=O)N[C@@H](CCCNC(=N)N)C(=O)N[C@H](Cc1ccc2ccccc2c1)C(N)=O [Peptide 26, Ac-Trp-DPhe-Arg-DNal(2’)-NH2] (Ac-W[dF]R[d2Nal]-NH2) | 4300 ± 800 | 310 | 23000 ± 7000 | 5800 ± 600 | – | – | 167 | 1094 | – | – | > 100 | approximately 1000 fold | – | – | > 160 | – | – | – | – | – |
| CC(=O)N[C@@H](Cc1cnc[nH]1)C(=O)N[C@H](Cc1ccccc1)C(=O)N[C@@H](CCCN=C(N)N)C(=O)N[C@@H](Cc1c[nH]c2ccccc12)C(N)=O [Peptide 1, Ac-His-DPhe-Arg-Trp-NH2, reference compound] | – | – | – | 5.3 ± 1.6 | – | – | – | – | – | – | – | – | – | – | – | – | – | – | – | – |
| CC(=O)N[C@@H](Cc1c[nH]c2ccccc12)C(=O)N[C@H](Cc1cccc2ccccc12)C(=O)N[C@@H](CCCNC(=N)N)C(=O)N[C@@H](Cc1c[nH]c2ccccc12)C(N)=O [Peptide 19, Ac-Trp-DNal(1’)-Arg-Trp-NH2] (Ac-W[d1Nal]RW-NH2) | 12000 ± 4000 | 870 | 9700 ± 4700 | 3900 ± 2200 | – | – | 70 | 725 | – | – | > 100 | – | – | – | – | – | – | – | – | – |
| CC(=O)N[C@@H](Cc1cccs1)C(=O)N[C@H](Cc1ccccc1)C(=O)N[C@@H](CCCNC(=N)N)C(=O)N[C@@H](Cc1ccc2ccccc2c1)C(N)=O [Peptide 28, Ac-2Thi-DPhe-Arg-Nal(2’)-NH2] (Ac-[2Thi][dF]R[2Nal]-NH2) | 450 ± 190 | 33 | 2600 ± 1300 | 76 ± 18 | – | – | 19 | 14 | – | – | 12 ± 6 | 14 fold | 22 | – | – | 35 | 163 | 6 | – | – |
| CCCCCCCC(=O)N[C@H](Cc1c[nH]cn1)C(=O)N[C@H](Cc1ccccc1)C(=O)N[C@@H](CCCNC(=N)N)C(=O)N[C@@H](Cc1c[nH]c2ccccc12)C(N)=O [Peptide 9, Octanoyl-DHis-DPhe-Arg-Trp-NH2] | 340 ± 30 | 25 | 230 ± 30 | 290 ± 40 | decreased potencies | – | – | 55 | – | – | 4.2 ± 0.8 | 55 fold | 7 | – | – | – | – | – | – | – |
| CCCCCCCC(=O)N[C@@H](Cc1c[nH]cn1)C(=O)N[C@H](Cc1ccccc1)C(=O)N[C@@H](CCCNC(=N)N)C(=O)N[C@@H](Cc1csc2ccccc12)C(N)=O [Peptide 3, Octanoyl-His-DPhe-Arg-3Bal-NH2] (Octanoyl-H[dF]R[Bta]-NH2) | 13 ± 3 | – | 14.6 ± 3.9 | 2.4 ± 0.5 | equipotent | – | −10 | – | – | – | 0.052 ± 0.007 | – | −11 | – | – | – | – | – | 10 | 11 |
